For seven molecules, IC50 and GI50 results are on record in patent publication US20230066011A1, “PYRROLOPYRIMIDINE DERIVATIVE, AND PHARMACEUTICAL COMPOSITION FOR PREVENTING OR TREATING PROTEIN KINASE-RELATED DISEASE COMPRISING SAME AS ACTIVE INGREDIENT” (VORONOI CO., LTD., priority 2019, published 2023).

The target of one assay is LRRK2 (G2019S) (Homo sapiens, UniProt Q5S007, G2019S). Kind of assay: LRRK2 G2019S enzyme inhibition, ADP-Glo kinase assay. The assay is classed as biochemical. Further details: purchased SignalChem L10-12GG. As to conditions: ATP 25 μM. The procedure, abridged: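 IC50 derived from luminescent ADP-Glo readout against untreated solvent control, twelve final compound concentrations from 50 μM downward. Reaction: recombinant human LRRK2 G2019S enzyme, 25 μM ATP, substrate, pH 7.4 Tris buffer with MgCl2/BSA/DTT, 25° C. for 2 hours.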
(In general: ADP-Glo turns the ADP formed in a reaction into a luminescent signal.)

The target in a further assay is T1, human GST-DYRK1A (Homo sapiens, UniProt Q13627).
T1 construct: purified human GST-DYRK1A (full length, Thermo Scientifics) enzyme; purchased Thermo Scientifics
Kind of assay: GST-DYRK1A enzyme inhibition, ADP-Glo kinase assay. As to conditions: ATP 10 μM, GST-DYRK1A full length, read-out: DYRK1 IC50. The assay is classed as biochemical. The procedure, abridged: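 Full-length enzyme (10 ng) was incubated with 10 μM ATP and a specific substrate for 1 h at 25 °C in 40 mM Tris-HCl pH 7.4, 20 mM MgCl2, 0.5 mg/mL BSA, 50 μM DTT. Luminescence was read against a solvent control, and IC50 values were derived from 3 data sets.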

Another assay has as its target T2, human GST-CLK1 (Homo sapiens, UniProt P49759).
T2 construct: purified human GST-CLK1 (129-end, SignalChem) enzyme; purchased SignalChem
Kind of assay: GST-CLK1 enzyme inhibition, ADP-Glo kinase assay. The assay is classed as biochemical. As to conditions: ATP 10 μM, GST-CLK1 129-end. The procedure, abridged: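 ADP-Glo luminescence read-out, relative to untreated solvent control, gave IC50 (nM) from triplicate data sets. Reactions ran an hour at 25° C with 3 ng GST-CLK1 (residues 129-end), 10 μM ATP and specific substrate in Tris-HCl pH 7.4 buffer with MgCl2, BSA and DTT.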

For the next assay, the target named is LRRK2 (Homo sapiens, UniProt Q5S007). Kind of assay: LRRK2 enzyme inhibition, ADP-Glo kinase assay. The assay is classed as biochemical. More on the design: purchased Invitrogen PR8604B. As to conditions: ATP 10 μM. The procedure, abridged:
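ADP-Glo luminescent read-out of ADP formed by purified human LRRK2 enzyme (25 ng), 10 μM ATP, 0.2 μg substrate, 25° C for 2 h, Tris-HCl pH 7.4 buffer with MgCl2, BSA, DTT. Inhibition versus untreated solvent control over twelve final concentrations (50 μM downward) gives IC50.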

A further assay deals with MDA-MB-468 cell line. The assay can be described thus: Inhibition of proliferation of MDA-MB-468 cancer cells (Cell Titer-Glo). It counts as cell-based. Conditions: Homo sapiens, MDA-MB-468, 72 hours. The procedure:
(§1) To evaluate an inhibitory effect on the proliferation of cancer cells, each of an MDA-MB-231 cell line (Korean Cell Line Bank #30026) and an MDA-MB-468 cell line as triple-negative breast cancer cell lines, and SHP-77 (ATCC #CRL-2195) as a small-cell lung cancer cell line was cultured in DMEM (HyClone #SH30243) or an RPMI medium (HyClone #SH3027.01) to analyze a cell growth rate. More specifically, a cell line was plated on a 96-well flat bottom plate (Corning #3903) at a density of 2,000 cells/100 μL per well, and then treated with 11 concentrations of the Example compound, a solution of which was diluted 3-fold so that a final concentration of the compound was 10.000000, 3.333333, 1.111111, 0.370370, 0.123457, 0.041152, 0.013717, 0.004572, 0.001524, 0.000508, and 0.000169 μM. After 72 hours, each of the culture media was treated with 100 μL of Cell Titer-Glo (Promega G7573), and then cultured at room temperature for 10 minutes. Then, a degree of luminescence was measured using a microplate reader. A GI50 value was calculated from the measured degree of luminescence using Prism (Version 8.2 GraphPad) software.
Background: ATP-based viability assays read luminescence as a measure of living cells.

A further assay relates to MDA-MB-231 cell line. The assay can be described thus: Inhibition of proliferation of MDA-MB-231 cancer cells (Cell Titer-Glo). It counts as cell-based. Conditions: Homo sapiens, 72 hours. As for the experimental part: as §1

LRRK2 (G2019S), sequence (Q5S007 970-2527 G2019S limits assumed): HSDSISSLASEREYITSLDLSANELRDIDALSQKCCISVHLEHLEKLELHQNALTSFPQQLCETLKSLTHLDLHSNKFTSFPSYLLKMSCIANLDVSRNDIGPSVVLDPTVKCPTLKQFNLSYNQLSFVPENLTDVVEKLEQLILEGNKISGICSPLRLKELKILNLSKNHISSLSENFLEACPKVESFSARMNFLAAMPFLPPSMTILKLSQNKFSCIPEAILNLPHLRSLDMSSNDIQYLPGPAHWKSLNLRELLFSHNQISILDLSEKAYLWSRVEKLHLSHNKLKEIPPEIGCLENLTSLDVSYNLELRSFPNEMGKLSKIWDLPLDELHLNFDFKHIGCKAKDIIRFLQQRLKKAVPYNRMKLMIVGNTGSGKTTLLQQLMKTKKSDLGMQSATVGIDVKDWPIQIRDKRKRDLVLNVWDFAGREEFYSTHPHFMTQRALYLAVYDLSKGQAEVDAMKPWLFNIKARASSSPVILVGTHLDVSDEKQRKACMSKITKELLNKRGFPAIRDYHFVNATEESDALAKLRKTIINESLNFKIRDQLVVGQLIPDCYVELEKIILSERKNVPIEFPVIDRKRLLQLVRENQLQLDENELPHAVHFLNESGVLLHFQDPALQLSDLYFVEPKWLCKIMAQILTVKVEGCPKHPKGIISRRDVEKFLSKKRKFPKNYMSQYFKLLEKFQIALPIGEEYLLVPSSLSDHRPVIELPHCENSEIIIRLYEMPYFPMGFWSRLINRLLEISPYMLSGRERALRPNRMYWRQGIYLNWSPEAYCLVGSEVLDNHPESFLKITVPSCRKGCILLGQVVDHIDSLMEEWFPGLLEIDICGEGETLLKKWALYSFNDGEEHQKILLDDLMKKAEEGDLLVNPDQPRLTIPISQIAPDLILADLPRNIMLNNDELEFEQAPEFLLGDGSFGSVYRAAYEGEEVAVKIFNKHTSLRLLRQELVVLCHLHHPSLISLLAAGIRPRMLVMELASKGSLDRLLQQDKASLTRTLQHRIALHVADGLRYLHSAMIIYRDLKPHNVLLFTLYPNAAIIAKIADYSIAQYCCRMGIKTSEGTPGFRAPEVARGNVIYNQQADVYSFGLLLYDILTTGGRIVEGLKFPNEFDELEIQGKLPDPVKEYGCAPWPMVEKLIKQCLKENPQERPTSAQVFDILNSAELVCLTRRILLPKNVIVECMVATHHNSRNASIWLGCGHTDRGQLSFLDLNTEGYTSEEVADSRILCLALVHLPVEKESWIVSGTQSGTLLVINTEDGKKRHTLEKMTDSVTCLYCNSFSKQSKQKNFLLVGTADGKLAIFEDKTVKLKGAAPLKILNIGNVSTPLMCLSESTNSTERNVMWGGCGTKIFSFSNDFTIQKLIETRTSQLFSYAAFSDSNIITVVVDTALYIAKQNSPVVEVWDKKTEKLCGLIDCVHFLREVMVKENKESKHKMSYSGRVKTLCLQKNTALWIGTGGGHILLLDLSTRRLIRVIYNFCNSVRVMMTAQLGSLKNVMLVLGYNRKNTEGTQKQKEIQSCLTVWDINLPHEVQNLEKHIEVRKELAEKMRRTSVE
LRRK2, sequence (Q5S007 970-2527 limits assumed): as the sequence (Q5S007 970-2527 G2019S limits assumed) above, with S1050G counted along it
T2 sequence (P49759 129-484 limits assumed): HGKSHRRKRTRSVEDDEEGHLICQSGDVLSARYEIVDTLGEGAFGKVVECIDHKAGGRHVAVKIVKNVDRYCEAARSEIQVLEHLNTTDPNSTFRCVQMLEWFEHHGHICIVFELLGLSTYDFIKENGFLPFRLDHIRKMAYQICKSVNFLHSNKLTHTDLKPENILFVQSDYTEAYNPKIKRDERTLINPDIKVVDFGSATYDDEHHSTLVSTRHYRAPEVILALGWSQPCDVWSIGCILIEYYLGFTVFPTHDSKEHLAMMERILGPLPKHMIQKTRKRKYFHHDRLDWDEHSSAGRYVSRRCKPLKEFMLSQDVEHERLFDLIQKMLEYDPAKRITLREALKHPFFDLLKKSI

Usually IC50 stands for the concentration at which inhibition is half-maximal. The term GI50 denotes the concentration giving 50% growth inhibition. A high value points to less potent growth inhibition. On to `CC[C@H](C)Nc1nc(Nc2ccc(S(=O)(=O)N3CCC(N4CCOCC4)CC3)cc2OC)nc2[nH]cc(C(F)(F)F)c12` [Example 211, (S)-N^4-(sec-butyl)-N^2-(2-methoxy-4-((4-morpholinopiperidin-1-yl)sulfonyl)phenyl)-5-(trifluoromethyl)-7H-pyrrolo[2,3-d]pyrimidine-2,4-diamine], for which the half-inhibitory concentration (IC50) at LRRK2 (G2019S) was 101 to 300 nM; on human GST-DYRK1A it was 301 to 1000 nM; at human GST-CLK1, 301 to 1000 nM; against LRRK2, less than 100 nM. The GI50 with MDA-MB-468 cell line and with MDA-MB-231 cell line was 301 to 1000 nM in each case.

With `COCCNc1nc(Nc2ccc(S(=O)(=O)N3CCOCC3)cc2OC)nc2[nH]cc(C(F)(F)F)c12` [Example 373, N^2-(2-methoxy-4-(morpholino-sulfonyl)phenyl)-N^4-(2-methoxyethyl)-5-(trifluoromethyl)-7H-pyrrolo[2,3-d]pyrimidine-2,4-diamine], the half-inhibitory concentration (IC50) against LRRK2 (G2019S) was less than 100 nM; on human GST-DYRK1A, 301 to 1000 nM; at human GST-CLK1, 301 to 1000 nM; at LRRK2, less than 100 nM. Besides, the 50% growth inhibitory concentration (GI50) with MDA-MB-468 cell line and in the assay with MDA-MB-231 cell line was 301 to 1000 nM throughout.

In the case of `COc1cc(S(=O)(=O)N2CCC(N3CCOCC3)CC2)ccc1Nc1nc(NC2CC2)c2c(C#N)c[nH]c2n1` [Example 88, 4-(cyclopropylamino)-2-((2-methoxy-4-((4-morpholinopiperidin-1-yl)sulfonyl)phenyl)amino)-7H-pyrrolo[2,3-d]pyrimidine-5-carbonitrile], the 50% inhibitory concentration (IC50) against LRRK2 (G2019S) was less than 100 nM; at human GST-DYRK1A, 101 to 300 nM; against human GST-CLK1, 101 to 300 nM; on LRRK2 it was less than 100 nM. Moreover, the GI50 in the assay on MDA-MB-468 cell line was in the range of 51 to 100 nM; in the assay on MDA-MB-231 cell line, 101 to 300 nM.

As for `CCNc1nc(Nc2ccc(S(=O)(=O)N3CCC(N4CCOCC4)CC3)cc2OC)nc2[nH]cc(C#N)c12` [Example 82, 4-(ethylamino)-2-((2-methoxy-4-((4-morpholinopiperidin-1-yl)sulfonyl)phenyl)amino)-7H-pyrrolo[2,3-d]pyrimidine-5-carbonitrile], the IC50 against LRRK2 (G2019S) was less than 100 nM; on human GST-DYRK1A, 301 to 1000 nM; against human GST-CLK1 it was less than 100 nM; against LRRK2, less than 100 nM. Moreover, the GI50 in the assay with MDA-MB-468 cell line and in the assay on MDA-MB-231 cell line was less than 50 nM each time.

As for `COCCNc1nc(Nc2ccc(S(=O)(=O)N3CCC(N4CCOCC4)CC3)cc2OC)nc2[nH]cc(C#N)c12` [Example 87, 2-((2-methoxy-4-((4-morpholinopiperidin-1-yl)sulfonyl)phenyl)amino)-4-((2-methoxyethyl)amino)-7H-pyrrolo[2,3-d]pyrimidine-5-carbonitrile], the concentration for half-maximal inhibition (IC50) is less than 100 nM on LRRK2 (G2019S), 101 to 300 nM at human GST-DYRK1A, less than 100 nM at human GST-CLK1 and less than 100 nM on LRRK2. The GI50 in the assay on MDA-MB-468 cell line was less than 50 nM; in the assay on MDA-MB-231 cell line it was 101 to 300 nM.

For the molecule `COc1cc(S(=O)(=O)N2CCOCC2)ccc1Nc1nc(NC2CC2)c2c(C(F)(F)F)c[nH]c2n1` [Example 374, N^4-cyclopropyl-N^2-(2-methoxy-4-(morpholino-sulfonyl)phenyl)-5-(trifluoromethyl)-7H-pyrrolo[2,3-d]pyrimidine-2,4-diamine], the concentration for half-maximal inhibition (IC50) against LRRK2 (G2019S) is less than 100 nM; at human GST-DYRK1A, 301 to 1000 nM; on human GST-CLK1, 301 to 1000 nM; against LRRK2, less than 100 nM. The GI50 with MDA-MB-468 cell line and with MDA-MB-231 cell line was 301 to 1000 nM in each case.

With `COc1cc(S(=O)(=O)N2CCOCC2)ccc1Nc1nc(NC2CCC2)c2c(C(F)(F)F)c[nH]c2n1` [Example 377, N^4-cyclobuty-N2-(2-methoxy-4-(morpholino-sulfonyl)phenyl)-5-(trifluoromethyl)-7H-pyrrolo[2,3-d]pyrimidine-2,4-diamine], the IC50 against LRRK2 (G2019S) was 101 to 300 nM; on human GST-DYRK1A it was 301 to 1000 nM; at human GST-CLK1, less than 100 nM; against LRRK2, 101 to 300 nM. Further, the GI50 with MDA-MB-468 cell line and with MDA-MB-231 cell line was 301 to 1000 nM in each case.
